What is called IC50 is the midpoint of a concentration-inhibition curve. A word on the melting point: it is the temperature of the solid-liquid transition.

The values below come from patent publication US8906909B2 (Curis, Inc., priority 2009, dated 2014).

One data set has as its system H1993 cells. Kind of data set: Cell proliferation assay Method A (ATPlite), H1993. In kind it is cell-based. As to conditions: Homo sapiens, NCI-H1993, 72 hours, read-out: antiproliferative activity IC50, H1993. As to the method: (§1) Cancer cell lines were plated at 5,000 to 10,000 per well in 96-well flat bottomed plates with various concentration of compounds. The cells were incubated with compounds for 72 hours in the presence of 0.5% of fetal bovine serum. Growth inhibition was accessed by adenosine triphosphate (ATP) content assay using Perkin Elmer ATPlite kit. ATPlite is an ATP monitoring system based on firefly luciferase. Briefly, 25 μl of mammalian cell lysis solution was added to 50 μl of phenol red-free culture medium per well to lyse the cells and stabilize the ATP. 25 μl of substrate solution was then added to the well and subsequently the luminescence was measured.
(In ATP-based viability assays light output follows the ATP content of the culture.)

A further data set deals with BT-474 cells. Kind of data set: Cell proliferation assay Method A (ATPlite), BT-474. Type of data set: cell-based. To be noted: Homo sapiens, 72 hours, read-out: antiproliferative activity IC50, BT-474. As to the method:
as §1

A further data set concerns Sk-Mel-28 cells. Kind of data set: Cell proliferation assay Method A (ATPlite), Sk-Mel-28. In kind it is cell-based. As to conditions: Homo sapiens, 72 hours, read-out: antiproliferative activity IC50, Sk-Mel-28. As to the method: as §1
In a further data set the test system is HCT-118 cells. The data set is described as follows: Cell proliferation assay Method A (ATPlite), HCT-118. In kind it is cell-based. As to conditions: 72 hours, read-out: antiproliferative activity IC50, HCT-118. As to the method:
as §1

The test system of data set [1] is HDACs (HeLa cell nuclear extracts). Kind of data set: HDAC enzymatic activity, Biomol Color de Lys system. Type of data set: biochemical. In a few lines:
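HeLa nuclear extract as HDAC source with Color de Lys substrate in 50 mM Tris/Cl pH 8.0, 137 mM NaCl, 2.7 mM KCl, 1 mM MgCl2. Serially diluted compounds reacted 1 h at 25 °C, then developer added; fluorescence (Ex 350–380/Em 440–460) fitted sigmoidally for IC50.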

Molecule `O=C(NO)c1ccc(NCc2cc3nc(-c4cccc5[nH]ncc45)nc(N4CCOCC4)c3s2)nc1` [Compound 76, 6-((2-(1H-indazol-4-yl)-4-morpholinothieno[3,2-d]pyrimidin-6-yl)methylamino)-N-hydroxynicotinamide] gave a melting point of 218 to 220 °C. Also, in the data set on H1993 cells, the IC50 is 100 to 1000 nM. In the data set with BT-474 cells, the IC50 is 100 to 1000 nM. Besides, the IC50 in the data set with Sk-Mel-28 cells lay in the range of 100 to 1000 nM. Further, the IC50 in the data set with HCT-118 cells lay in the range of 100 to 1000 nM. The molecule also came in with an IC50 in data set [1] below 100 nM.

Turning to `O=C(NO)c1cnc(N(CCCO)Cc2cc3nc(-c4cccc5[nH]ncc45)nc(N4CCOCC4)c3s2)nc1` [Compound 91], the IC50 was above 10000 nM with H1993 cells, 1000 to 10000 nM with BT-474 cells, 1000 to 10000 nM in the data set with HCT-118 cells and below 100 nM in data set [1].

`CCN(Cc1cc2nc(-c3cccc4[nH]ncc34)nc(N3CCOCC3)c2s1)c1ncc(C(=O)NO)cn1` [Compound 92]: the IC50 with BT-474 cells is below 100 nM; in the data set with Sk-Mel-28 cells, 100 to 1000 nM; in the data set with HCT-118 cells it was below 100 nM; in data set [1], below 100 nM.

For `COCCN(Cc1cc2nc(-c3cccc4[nH]ncc34)nc(N3CCOCC3)c2s1)c1ncc(C(=O)NO)cn1` [Compound 90, 2-(((2-(1H-indazol-4-yl)-4-morpholinothieno[3,2-d]pyrimidin-6-yl)methyl)(2-methoxyethyl)amino)-N-hydroxypyrimidine-5-carboxamide], the IC50 with H1993 cells is 1000 to 10000 nM; in the data set with BT-474 cells, 100 to 1000 nM; in the data set with HCT-118 cells it was below 100 nM.

For the molecule `CN(Cc1cc2nc(-c3cc(F)cc4[nH]ncc34)nc(N3CCOCC3)c2s1)c1ncc(C(=O)NO)cn1` [Compound 69, 2-(((2-(6-fluoro-1H-indazol-4-yl)-4-morpholinothieno[3,2-d]pyrimidin-6-yl)methyl)(methyl)amino)-N-hydroxypyrimidine-5-carboxamide], the melting point was in the range of 215 to 217 °C. For the same molecule, the IC50 in the data set on H1993 cells is below 100 nM. The IC50 in the data set with BT-474 cells was below 100 nM. In the data set with Sk-Mel-28 cells, the IC50 was below 100 nM. Moreover, the IC50 in the data set with HCT-118 cells is below 100 nM. Also, in data set [1], the IC50 was below 100 nM.

On to `N#CCCN(Cc1cc2nc(-c3cccc4[nH]ncc34)nc(N3CCOCC3)c2s1)c1ncc(C(=O)NO)cn1` [Compound 99], for which the IC50 in the data set on H1993 cells was above 10000 nM; in the data set on BT-474 cells it was 100 to 1000 nM; in the data set on Sk-Mel-28 cells it was 100 to 1000 nM; in the data set with HCT-118 cells, above 10000 nM; in data set [1], below 100 nM.

As to `CN(Cc1cc2nc(-c3cccc4[nH]ncc34)nc(N3CCOCC3)c2s1)c1ncc(/C=C/C(=O)NO)cn1` [Compound 75], the IC50 (with H1993 cells; in the data set with BT-474 cells; in the data set on Sk-Mel-28 cells; with HCT-118 cells; in data set [1]) was 100 to 1000 nM throughout.

For `CC(=O)OCCN(Cc1cc2nc(-c3cccc4[nH]ncc34)nc(N3CCOCC3)c2s1)c1ncc(C(=O)NO)cn1` [Compound 87], the IC50 with H1993 cells was 1000 to 10000 nM; in the data set on BT-474 cells it was 1000 to 10000 nM; in the data set with Sk-Mel-28 cells it was 100 to 1000 nM; with HCT-118 cells it was 100 to 1000 nM; in data set [1] it was below 100 nM.

`O=C(NO)c1cnc(N(CCO)Cc2cc3nc(-c4cccc5[nH]ncc45)nc(N4CCOCC4)c3s2)nc1` [Compound 86, 2-(((2-(1H-indazol-4-yl)-4-morpholinothieno[3,2-d]pyrimidin-6-yl)methyl)(2-hydroxyethyl)amino)-N-hydroxypyrimidine-5-carboxamide] registered a melting point of 190 to 194 °C. Further, the IC50 in the data set on BT-474 cells lay within 100 to 1000 nM. In addition, the IC50 with Sk-Mel-28 cells fell in the range of 1000 to 10000 nM. For the same molecule, the IC50 with HCT-118 cells was in the range of 100 to 1000 nM. For the same molecule, in data set [1], the IC50 is below 100 nM.

Consider `CN(Cc1cc2nc(-c3ccc(N)c(F)c3)nc(N3CCOCC3)c2s1)c1ncc(C(=O)NO)cn1` [Compound 276, 2-(((2-(4-Amino-3-fluorophenyl)-4-morpholinothieno[3,2-d]pyrimidin-6-yl)methyl)(methyl)amino)-N-hydroxypyrimidine-5-carboxamide], for which the melting point was 203 to 206 °C. Also, the IC50 in data set [1] is below 100 nM.

With `CC(=O)Nc1cccc(-c2nc(N3CCOCC3)c3sc(CN(C)c4ncc(C(=O)NO)cn4)cc3n2)c1` [Compound 107, 2-(((2-(3-acetamidophenyl)-4-morpholinothieno[3,2-d]pyrimidin-6-yl)methyl)(methyl)amino)-N-hydroxypyrimidine-5-carboxamide], the melting point lay within 183 to 185 °C. Besides, the IC50 in data set [1] is below 100 nM.

In turn, `CN(Cc1cc2nc(-c3ccc(N)c([N+](=O)[O-])c3)nc(N3CCOCC3)c2s1)c1ncc(C(=O)NO)cn1` [Compound 278, 2-(((2-(4-Amino-3-nitrophenyl)-4-morpholinothieno[3,2-d]pyrimidin-6-yl)methyl)(methyl)amino)-N-hydroxypyrimidine-5-carboxamide] gave a melting point of 202 to 206 °C. Also, the IC50 in data set [1] is below 100 nM.

Molecule `CN(Cc1cc2nc(-c3ccc(F)cc3)nc(N3CCOCC3)c2s1)c1ncc(C(=O)NO)cn1` [Compound 200, 2-(((2-(4-fluorophenyl)-4-morpholinothieno[3,2-d]pyrimidin-6-yl)methyl)(methyl)amino)-N-hydroxypyrimidine-5-carboxamide] displayed a melting point of 168 to 170 °C. For the same molecule, the IC50 in data set [1] is below 100 nM.

Regarding `CN(Cc1cc2nc(-c3ccc(N)c(O)c3)nc(N3CCOCC3)c2s1)c1ncc(C(=O)NO)cn1` [Compound 279, 2-(((2-(4-Amino-3-hydroxyphenyl)-4-morpholinothieno[3,2-d]pyrimidin-6-yl)methyl)(methyl)amino)-N-hydroxypyrimidine-5-carboxamide], the melting point was 214 to 218 °C. In addition, in data set [1], the IC50 was below 100 nM.

Turning to `CS(=O)(=O)N1CCN(Cc2cc3nc(-c4ccc(OCCCCCCC(=O)NO)cc4)nc(N4CCOCC4)c3s2)CC1` [Compound 321, N-Hydroxy-7-(4-(6-((4-(methylsulfonyl)piperazin-1-yl)methyl)-4-morpholinothieno[3,2-d]pyrimidin-2-yl)phenoxy)heptanamide], the melting point was 143 to 145 °C. The same molecule registered an IC50 in data set [1] of 100 to 1000 nM.

The molecule `CN(Cc1cc2nc(-c3ccc(C(F)(F)F)cc3)nc(N3CCOCC3)c2s1)c1ncc(C(=O)NO)cn1` [Compound 202, N-hydroxy-2-(methyl((4-morpholino-2-(4-(trifluoromethyl)phenyl)thieno[3,2-d]pyrimidin-6-yl)methyl)amino)pyrimidine-5-carboxamide] registered a melting point of 222 to 223 °C. For the same molecule, the IC50 in data set [1] was below 100 nM.

The molecule `COc1ccc(-c2nc(N3CCOCC3)c3sc(NS(=O)(=O)c4cccc(/C=C/C(=O)NO)c4)cc3n2)cn1` [Compound 221, (E)-N-hydroxy-3-(3-(N-(2-(6-methoxypyridin-3-yl)-4-morpholinothieno[3,2-d]pyrimidin-6-yl)sulfamoyl)phenyl)acrylamide] yielded a melting point above 300 °C. The same molecule had an IC50 in data set [1] below 100 nM.

Turning to `CN(Cc1cc2nc(-c3cccnc3)nc(N3CCOCC3)c2s1)c1ncc(C(=O)NO)cn1` [Compound 109, N-hydroxy-2-(methyl((4-morpholino-2-(pyridin-3-yl)thieno[3,2-d]pyrimidin-6-yl)methyl)amino)pyrimidine-5-carboxamide], the melting point is 160 to 164 °C. For the same molecule, the IC50 with H1993 cells is below 100 nM. In the data set with BT-474 cells, the IC50 is below 100 nM. Moreover, the IC50 in the data set with HCT-118 cells was below 100 nM. This molecule also gave an IC50 in data set [1] below 100 nM.

Take `CN(Cc1cc2nc(-c3ccc(OCCO)nc3)nc(N3CCOCC3)c2s1)c1ncc(C(=O)NO)cn1` [Compound 256, N-Hydroxy-2-(((2-(6-(2-hydroxyethoxy)pyridin-3-yl)-4-morpholinothieno[3,2-d]pyrimidin-6-yl)methyl)(methyl)amino)pyrimidine-5-carboxamide]: the melting point was 143 to 145 °C. Moreover, in data set [1], the IC50 was below 100 nM.

The molecule `CCc1ncc(-c2nc(N3CCOCC3)c3sc(CN(C)c4ncc(C(=O)NO)cn4)cc3n2)cn1` [Compound 121, 2-(((2-(2-ethylpyrimidin-5-yl)-4-morpholinothieno[3,2-d]pyrimidin-6-yl)methyl)(methyl)amino)-N-hydroxypyrimidine-5-carboxamide] registered a melting point of 153 to 156 °C. In data set [1], this molecule returned an IC50 below 100 nM.

With `Nc1ncc(-c2nc(N3CCOCC3)c3sc(NCCCC(=O)NO)cc3n2)cn1` [Compound 225, 4-(2-(2-aminopyrimidin-5-yl)-4-morpholinothieno[3,2-d]pyrimidin-6-ylamino)-N-hydroxybutanamide], the melting point lay within 220 to 230 °C. The same molecule displayed an IC50 in data set [1] of 1000 to 10000 nM.

`CS(=O)(=O)N1CCN(Cc2cc3nc(-c4cccc5nn(CCCCCC(=O)NO)cc45)nc(N4CCOCC4)c3s2)CC1` [Compound 8, N-hydroxy-6-(4-(6-((4-(methylsulfonyl)piperazin-1-yl)methyl)-4-morpholinothieno[3,2-d]pyrimidin-2-yl)-2H-indazol-2-yl)hexanamide] showed a melting point of 124 to 125 °C. The molecule further displayed an IC50 in data set [1] below 100 nM.
